One series deals with erythropoietin (Epo). The experiment in a line: Epo expression in isolated hepatocytes (RT-PCR). The format is cell-based, mouse. As to conditions: 0.1-12.5 μg/ml, 24 hours; FIG. 4. As to the method: C57BL/6JNarl mice, 8-10 weeks of age, were purchased from the National Laboratory Animal Center (NLAC, Taiwan). The hepatocytes were isolated as previously described with modifications (Kreamer et al., 1986). Briefly, mice were anaesthetized with Avertin (2% (w/v) 2,2,2-tribromoethanol, i.p., 300 mg/Kg body weight) and the liver was perfused in situ through portal vein with a calcium-free Hank's balanced salt solution (HBSS) containing 0.5 mM Ethylene glycol-bis(2-aminoethylether)-N,N,N′,N′-tetraacetic acid (EGTA; Sigma-Aldrich). […] After 10 min of perfusion, HBSS containing 0.05% (w/v) collagenase (Type II; Worthington Biochemical Corporation) and 1 mM calcium chloride (Sigma-Aldrich) was introduced into the perfusion apparatus. The perfusion was continued for another 10 min at the same flow rate. The partially digested liver was removed, placed in a 60-mm culture dish (BD Falcon) containing HBSS, and gently minced to open the liver capsula. […]
The isolated hepatocytes were plated in 6-well plates (Costar) at approximately 6×10^5 cells/well in DMEM medium (Gibco/Invitrogen) containing 10% FBS (Gibco) in a humidified 37° C. incubator containing 5% CO2-95% air. […] The RNA of hepatocyte was extracted by RNA-Bee™ RNA isolation solvent (Tel-test) for reverse transcription, and the transcripts analyzed by PCR as previously described.

The subject of series [1] is erythroid progenitor cells (bone marrow cells). The experiment in a line: BFU-E assay on bone marrow cells isolated from treated mice of the cisplatin-induced acute renal failure model. The format is in vivo, C57BL/6JNarl mice. As to conditions: 10~90 mg/kg/day; cells isolated day 28, cultured 12 days; versus control group; FIG. 11. The procedure:
The effects of Compound A treatment on cisplatin-induced acute renal failure animal model were investigated. C57BL/6JNarl mice (8-week-old) were purchased from the National Laboratory Animal Center (NLAC, Taiwan). Cisplatin (Sigma-Aldrich) was dissolved in normal saline (0.9% (w/v) sodium chloride, Sigma-Aldrich) at a concentration of 1 mg/ml, and injected into mice intraperitoneally (i.p.) according to the following schedule: day 1, 7 mg/kg; day 5, 6 mg/kg; and day 9, 6 mg/kg. For cisplatin-untreated normal mice group, normal saline injections of corresponding volumes were given i.p. in parallel. At day 13, serum samples were collected and blood urea nitrogen (BUN) contents were assayed. […]
At the end of the experiments described in EXAMPLE 6 (i.e., day 28), mice were sacrificed, kidney and liver tissues were removed, and bone marrow cells were isolated. […] The reverse-transcribed cDNA samples were analyzed by PCR using ABI GeneAmp™ system 2700 (Applied Biosystems) and the SYBR Green Master Mix kit (Applied Biosystems) using primers targeting toward mouse glyceraldehyde 3-phosphate dehydrogenase (GAPDH) (SEQ ID NOs: 5 and 6), erythropoietin (Epo) (SEQ ID NOs: 3 and 4) and hepatocyte growth factor (HGF) (SEQ ID NOs: 7 and 8) (Table 1). Results were expressed as relative index±S.E. (n=5˜6). […]

The values below come from patent US9980979B2, “Compounds and methods for enhancing erythropoiesis” (NATIONAL YANG-MING UNIVERSITY, priority 2008, dated 2018).

For `OC[C@H]1O[C@@H](Oc2c(O)cc(O)cc2/C=C/c2ccc(O)cc2)[C@H](O)[C@@H](O)[C@@H]1O` [Compound A, 2,3,5,4′-tetrahydroxystilbene 2-O-β-D-glucopyranoside], the “expression of Epo in hepatocytes” value in the series with erythropoietin (Epo) was “enhanced the expression of Epo in hepatocytes”. Moreover, the “number of BFU-E colonies of bone marrow cells (relative index)” value in series [1] is “significantly increased the number of BFU-E colonies”.
